Consider 22 molecules from patent US7709482B2, “Polycyclic heteroaryl substituted triazoles useful as Axl inhibitors” (Rigel Pharmaceuticals, Inc., priority 2006, dated 2010).

The first experiment deals with T1, Axl (Homo sapiens, UniProt P30530).
T1 construct: endogenous in cells; host or cells: HeLa cells
T1 sequence (P30530 26-894): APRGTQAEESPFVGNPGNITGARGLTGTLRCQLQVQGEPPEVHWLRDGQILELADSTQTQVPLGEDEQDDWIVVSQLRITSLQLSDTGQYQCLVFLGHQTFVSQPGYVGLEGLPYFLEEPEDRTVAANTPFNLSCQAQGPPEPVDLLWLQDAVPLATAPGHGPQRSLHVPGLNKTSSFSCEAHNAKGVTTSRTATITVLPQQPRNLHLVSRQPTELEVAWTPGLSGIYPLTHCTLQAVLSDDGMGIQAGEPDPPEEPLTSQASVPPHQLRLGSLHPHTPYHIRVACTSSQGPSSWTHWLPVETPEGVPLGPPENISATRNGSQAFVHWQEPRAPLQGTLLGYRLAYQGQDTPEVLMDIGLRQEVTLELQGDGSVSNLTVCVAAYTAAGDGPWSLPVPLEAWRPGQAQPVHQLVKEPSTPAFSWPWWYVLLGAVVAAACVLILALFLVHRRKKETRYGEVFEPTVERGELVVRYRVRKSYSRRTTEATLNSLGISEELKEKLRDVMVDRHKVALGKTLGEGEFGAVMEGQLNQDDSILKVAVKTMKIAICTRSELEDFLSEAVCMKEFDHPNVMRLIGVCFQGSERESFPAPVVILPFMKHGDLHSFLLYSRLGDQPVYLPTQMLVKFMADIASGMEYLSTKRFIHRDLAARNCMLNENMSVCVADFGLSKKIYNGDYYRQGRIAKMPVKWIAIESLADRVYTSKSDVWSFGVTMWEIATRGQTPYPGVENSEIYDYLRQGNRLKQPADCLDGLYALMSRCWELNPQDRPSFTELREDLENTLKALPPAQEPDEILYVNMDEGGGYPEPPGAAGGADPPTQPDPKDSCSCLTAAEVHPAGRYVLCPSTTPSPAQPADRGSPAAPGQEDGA
Kind of experiment: Phospho-Akt In-Cell Western Assay (inhibition of Axl activity after Axl-antibody cross-linking). It is filed as cell-based. The conditions noted are these: Hela cells, phospho-Akt chemiluminescence normalized to relative cell number; compounds of formula (Ia), Table 1; read-out: IC50. In short, it runs like this:
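Phospho-Akt was detected in formaldehyde-fixed cells by in-cell immunostaining with HRP chemiluminescence. Before fixation, HeLa cells kept 24 h in low-serum medium containing 500 ng/mL Axl/Fc received compound for 1 h at 37 °C, followed by 5-min Axl activation through antibody clustering.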
What is called IC50 is the concentration needed to halve the response being measured. With `Nc1nc(Nc2ccc(OCCN3CCCC3)cc2)nn1C1=Nc2ccccc2Sc2ccccc21` [Compound 49, 1-((Z)-dibenzo[b,f][1,4]thiazepin-11-yl)-N^3-(4-(2-(pyrrolidin-1-yl)ethoxy)phenyl)-1H-1,2,4-triazole-3,5-diamine], the half-inhibitory concentration (IC50) lay in the range of 1000 to 10000 nM.

As for `CCCN(CCC)C1CCN(c2ccc(Nc3nc(N)n(-c4cc5c(nn4)-c4ccccc4CCC5)n3)cc2F)CC1` [Compound 83, 1-(6,7-dihydro-5H-benzo[6,7]cyclohepta[1,2-c]pyridazin-3-yl)-N^3-(3-fluoro-4-(4-(dipropylamino)piperidin-1-yl)phenyl)-1H-1,2,4-triazole-3,5-diamine], the IC50 was in the range of 1000 to 10000 nM. On to `CN1CCC(c2ccc(Nc3nc(N)n(-c4cc5c(nn4)-c4ccccc4CCC5)n3)cc2)CC1` [Compound 99, 1-(6,7-dihydro-5H-benzo[6,7]cyclohepta[1,2-c]pyridazin-3-yl)-N^3-(4-(methylpiperidin-4-yl)phenyl)-1H-1,2,4-triazole-3,5-diamine], for which the IC50 was less than 1000 nM. Same read-out and setting: next, `CN1CCN(C2CCN(c3ccc(Nc4nc(N)n(-c5cc6c(nn5)-c5ccccc5CCC6)n4)cc3F)CC2)CC1` [Compound 58, 1-(6,7-dihydro-5H-benzo[6,7]cyclohepta[1,2-c]pyridazin-3-yl)-N^3-(3-fluoro-4-(4-(4-methylpiperazin-1-yl)piperidin-1-yl)phenyl)-1H-1,2,4-triazole-3,5-diamine]: less than 1000 nM; `CN1CCc2ncc(Nc3nc(N)n(-c4cc5c(nn4)-c4ccccc4CCC5)n3)cc2C1` [Compound 28, 1-(6,7-dihydro-5H-benzo[6,7]cyclohepta[1,2-c]pyridazin-3-yl)-N^3-(6-methyl-5,6,7,8-tetrahydro-1,6-naphthyridin-3-yl)-1H-1,2,4-triazole-3,5-diamine]: less than 1000 nM. Still for that read-out and setting: in the case of `Nc1nc(Nc2ccc(N3CCC(N4CCCC4)CC3)c(Cl)c2)nn1-c1cc2c(nn1)-c1ccccc1CCC2` [Compound 62, 1-(6,7-dihydro-5H-benzo[6,7]cyclohepta[1,2-c]pyridazin-3-yl)-N^3-(3-chloro-4-(4-pyrrolidin-1-yl-piperidin-1-yl)phenyl)-1H-1,2,4-triazole-3,5-diamine] it was less than 1000 nM. As to `CN1CC2CN(c3ccc(Nc4nc(N)n(-c5cc6c(nn5)-c5ccccc5CCC6)n4)cc3F)CC2C1` (stereo not shown) [Compound 66, 1-(6,7-dihydro-5H-benzo[6,7]cyclohepta[1,2-c]pyridazin-3-yl)-N^3-(3-fluoro-4-(5-methyloctahydro-pyrrolo[3,4-c]pyrrolyl)phenyl)-1H-1,2,4-triazole-3,5-diamine], the IC50 is less than 1000 nM.

For the molecule `CCN(CC)C1CCN(c2ccc(Nc3nc(N)n(-c4ncnc5c4CCCc4ccccc4-5)n3)cc2F)CC1` [Compound 39, 1-(6,7-dihydro-5H-benzo[6,7]cyclohepta[1,2-d]pyrimidin-4-yl)-N^3-(3-fluoro-4-(4-(diethylamino)piperidin-1-yl)phenyl)-1H-1,2,4-triazole-3,5-diamine], the 50% inhibitory concentration (IC50) is less than 1000 nM. The same measure, in the same setting: in the case of `CN1CCc2cc(-n3nc(Nc4ccc(OCCN5CCCC5)c(F)c4)nc3N)nnc2-c2ccccc21` [Compound 42, 1-(7-methyl-6,7-dihydro-5H-benzo[2,3]azepino[4,5-c]pyridazin-3-yl)-N^3-(3-fluoro-4-(2-(pyrrolidin-1-yl)ethoxy)phenyl)-1H-1,2,4-triazole-3,5-diamine] it was less than 1000 nM; in that of `Nc1nc(Nc2ccc(N3CCN(C4CCCCC4)CC3)c(F)c2)nn1-c1ncc2c(n1)-c1ccccc1CCC2` [Compound 45, 1-(6,7-dihydro-5H-benzo[6,7]cyclohepta[1,2-d]pyrimidin-2-yl)-N^3-(3-fluoro-4-(4-cyclohexylpiperazinyl)phenyl)-1H-1,2,4-triazole-3,5-diamine], less than 1000 nM.

The same experiment, now with this note: Hela cells, phospho-Akt chemiluminescence normalized to relative cell number; compounds of formula (Ib), Table 2; read-out: IC50.
As to `Nc1nc(Nc2cnc3c(c2)CC2(CCC3)OCCO2)n(-c2cc3c(nn2)-c2ccccc2CCC3)n1` [Compound 248, 1-(6,7-dihydro-5H-benzo[6,7]cyclohepta[1,2-c]pyridazin-3-yl)-N^5-(5,7,8,9-tetrahydrospiro[cyclohepta[b]pyridine-6,2′[1,3]dioxolane]-3-yl)-1H-1,2,4-triazole-3,5-diamine], the half-maximal inhibitory concentration (IC50) is more than 20000 nM. As to `CN1CCN(c2ccc(Nc3nc(N)nn3-c3cc4c(nn3)-c3ccccc3N(C)CC4)cc2)CC1` [Compound 162, 1-(7-methyl-6,7-dihydro-5H-benzo[2,3]azepino[4,5-c]pyridazin-3-yl)-N^5-(4-(N-methylpiperazin-1-yl)phenyl)-1H-1,2,4-triazole-3,5-diamine], the IC50 was more than 20000 nM. In the case of `Cc1cc(Nc2nc(N)nn2-c2cc3c(nn2)-c2ccccc2CCC3)ccc1N1CCC(N2CCN(C)CC2)CC1` [Compound 171, 1-(6,7-dihydro-5H-benzo[6,7]cyclohepta[1,2-c]pyridazin-3-yl)-N^5-(3-methyl-4-(4-(N-methylpiperazin-4-yl)piperidin-1-yl)phenyl)-1H-1,2,4-triazole-3,5-diamine], the half-maximal inhibitory concentration (IC50) is more than 20000 nM.

With `Nc1nc(Nc2ccc3c(c2)CC[C@@H](N2CCCC2)CC3)n(-c2cc3c(nn2)-c2ccccc2CCC3)n1` [Compound 249, 1-(6,7-dihydro-5H-benzo[6,7]cyclohepta[1,2-c]pyridazin-3-yl)-N^5-(7-(S)-pyrrolidin-1-yl-6,7,8,9-tetrahydro-5H-benzo[7]annulene-2-yl)-1H-1,2,4-triazole-3,5-diamine], the half-inhibitory concentration (IC50) is less than 1000 nM.

Staying with this experiment, now noted: inhibition of Axl activity; Table 1, compounds of formula (Ia); read-out: IC50.
Regarding `CN1CCN(C2CCN(CC=Cc3ccc(Nc4nc(N)n(-c5cc6c(nn5)-c5ccccc5CCC6)n4)cc3)CC2)CC1` [Compound 196, 1-(6,7-dihydro-5H-benzo[6,7]cyclohepta[1,2-c]pyridazin-3-yl)-N^3-(4-(4-(4-methylpiperazin-1-yl)piperidin-1-ylprop-1-enyl)phenyl)-1H-1,2,4-triazole-3,5-diamine], the half-inhibitory concentration (IC50) was less than 1000 nM. Same read-out and setting: next, `CN(C)C1CCN(C/C=C/c2ccc(Nc3nc(N)n(-c4cc5c(nn4)-c4ccccc4CCC5)n3)cn2)CC1` [Compound 146, 1-(6,7-dihydro-5H-benzo[6,7]cyclohepta[1,2-c]pyridazin-3-yl)-N^3-(6-(3-(4-dimethylaminopiperidin-1-yl)-(E)-propenyl)pyridin-3-yl)-1H-1,2,4-triazole-3,5-diamine]: less than 1000 nM. Still for that read-out and setting: in the case of `Nc1nc(Nc2cnc3c(c2)CC(N2CCCC2)CC3)nn1-c1cc2c(nn1)-c1ccccc1CCC2` (stereo not shown) [Compound 189, 1-(6,7-dihydro-5H-benzo[6,7]cyclohepta[1,2-c]pyridazin-3-yl)-N^3-(6-(pyrrolidin-1-yl)-5,6,7,8-tetrahydroquinolin-3-yl)-1H-1,2,4-triazole-3,5-diamine] it was less than 1000 nM. Same read-out and setting: in the case of `Nc1nc(Nc2ccc3c(c2)CCC(NC2CCCC2)CC3)nn1-c1cc2c(nn1)-c1ccccc1CCC2` (stereo not shown) [Compound 186, 1-(6,7-dihydro-5H-benzo[6,7]cyclohepta[1,2-c]pyridazin-3-yl)-N^3-(7-cyclopentylamino-6,7,8,9-tetrahydro-5H-benzo[7]annulene-2-yl)-1H-1,2,4-triazole-3,5-diamine] it was less than 1000 nM; in that of `Nc1nc(Nc2ccc(N3CCC(N4CCCC4)CC3)c(F)c2)nn1-c1cc2c(nn1)-c1ccccc1OC21CCCC1` [Compound 176, 1-(spiro[chromeno[4,3-c]pyridazine-5,1′-cyclopentane]-3-yl)-N^3-(3-fluoro-4-(4-(pyrrolidin-1-yl)piperidin-1-yl)phenyl)-1H-1,2,4-triazole-3,5-diamine], 1000 to 10000 nM. As for `Nc1nc(Nc2cnc3c(c2)CN(C2CCCC2)CC3)nn1-c1cc2c(nn1)-c1ccccc1CCC2` [Compound 190, 1-(6,7-dihydro-5H-benzo[6,7]cyclohepta[1,2-c]pyridazin-3-yl)-N^3-(6-cyclopentyl-5,6,7,8-tetrahydro-1,6-naphthyridine-3-yl)-1H-1,2,4-triazole-3,5-diamine], the IC50 was less than 1000 nM. Same read-out and setting: next, `Nc1nc(Nc2ccc(N3CCC(N4CCCC4)C3)c(F)c2)nn1-c1cc2c(nn1)-c1ccccc1CCC2` (stereo not shown) [Compound 132, 1-(6,7-dihydro-5H-benzo[6,7]cyclohepta[1,2-c]pyridazin-3-yl)-N^3-(3-fluoro-(4-(3-pyrrolidin-1-yl)pyrrolidin-1-yl)phenyl)-1H-1,2,4-triazole-3,5-diamine]: less than 1000 nM; `Nc1nc(Nc2cnc3c(c2)CCC(N2CCCC2)CC3)nn1-c1cc2c(nn1)-c1ccccc1CCC2` (stereo not shown) [Compound 152, 1-(6,7-dihydro-5H-benzo[6,7]cyclohepta[1,2-c]pyridazin-3-yl)-N^3-((7-pyrrolidin-1-yl)-6,7,8,9-tetrahydro-5H-cyclohepta[b]pyridine-3-yl)-1H-1,2,4-triazole-3,5-diamine]: less than 1000 nM.
